Measurements taken from PMC9783227, “New Derivatives of the Multi-Stage Active Malaria Box Compound MMV030666 and Their Antiplasmodial Potencies” (Pharmaceuticals, 2022).
Like-named read-outs stand apart in the source and are kept apart here.

Tests used:
P. falciparum NF54 [1] = system: P. falciparum NF54; design: method as in PMID 34832891; conditions: comparison compounds 1-4 of the first series, cited from earlier work; for IC50: read-out: PfNF54 IC50
L-6 cells [2] = system: L-6 cells; design: method as in PMID 34832891; conditions: comparison compounds 1-4 of the first series; read-out: Cytotoxicity L-6 Cells IC50; cited from earlier work
[3] = Parallel artificial membrane permeability assay (PAMPA); conditions: PAMPA, PBS pH 7.4, 200 µM, 5 h, room temperature
Method: The parallel artificial membrane permeability assay (PAMPA) is a fast and easy high-throughput assay to determine passive permeability of compounds through semi-permeable membranes (for example the blood-brain-barrier) without the influence of efflux pumps or transporter molecules.
With the high-throughput PAMPA the newly synthesized compounds were tested for their passive permeability through cell membranes without the influence of efflux pumps or transporter proteins. The assay was performed using a Corning® Gentest^TM Pre-coated PAMPA Plate System with 96-well polystyrene plates. The bottom of the acceptor plate consists of a porous membrane, whereby the pores are lined with a lipid-oil-lipid triple layer. Stock solutions of each test compound at 10 mM were prepared in DMSO or methanol and diluted with phosphate-buffered saline (PBS at a pH of 7.4) to a final concentration of 200 µM. […] The donor plate (bottom plate) was filled with the compound solutions, whereby all compounds were tested in quadruplicates. Each well of the acceptor plate (top plate) was filled with PBS buffer. Donor and acceptor plates were combined and incubated at room temperature for 5 h. After that, the plates were separated and 150 µL of each well of both plates were transferred to 96-well UV plates (Greiner Bio-One). Absorption at different wavelengths covering a range from 200 to 300 nm was measured using a SpectraMax M3 UV plate reader. […] The plates were analyzed at the wavelength where the R^2 value of the calibration curve was higher than 0.99 [41]. […] (2) cequ=[cD(t)∗VD+cA(t)∗VA]/(VD+VA) where: • VD—donor well volume (0.3 mL); • VA—acceptor well volume (0.2 mL); • cA(t)—acceptor well compound concentration at time t; • cD(t)—donor well compound concentration at time t.
Recovery of compounds from donor and acceptor wells (mass retention) was calculated as shown in the equation below. Data were only accepted when recovery exceeded 70%. (3) R=1−[cD(t)∗VD+cA(t)∗VA]/(c0∗VD) where: • R—mass retention (%); • VD—donor well volume (0.3 mL); • VA—acceptor well volume (0.2 mL); • cA(t)—acceptor well compound concentration at time t; • cD(t)—donor well compound concentration at time t; • c0—initial donor well compound concentration (200 µM).

in vitro = conditions: rat
Method: (§1) All newly prepared compounds were tested for their in vitro activity against the chloroquine sensitive strain NF54 of P. falciparum. Cytotoxicity was determined using L-6 cells (rat skeletal myofibroblasts). Chloroquine and podophyllotoxin were used as standards.
(§2) The cytotoxicity assays were performed using 96-well microtiter plates, each well containing 4000 L-6 cells (a primary cell line derived from rat skeletal myofibroblasts, ATCC CRL-1458^TM) in 0.1 mL of RPMI 1640 medium supplemented with 1% glutamine (200 mM) and 10% fetal bovine serum. Serial drug dilutions of eleven 3-fold dilution steps covering a range from 100 to 0.002 µg/mL were prepared. After 70 h of incubation, the plates were inspected under an inverted microscope to assure growth of the controls and sterile conditions. Then, 0.01 mL resazurin solution (resazurin, 12.5 mg in 100 mL double-distilled water) was added to each well and the plates were incubated for another 2 h. The plates were read with a Spectramax Gemini XS microplate fluorometer (Molecular Devices Cooperation, Sunnyvale, CA, USA) using an excitation wavelength of 536 nm and an emission wavelength of 588 nm. IC50 values were calculated by linear regression from the sigmoidal dose inhibition curves using SoftmaxPro software (Molecular Devices Cooperation, Sunnyvale, CA, USA). Podophyllotoxin (Sigma P4405) was used as control.

P. falciparum NF54 [4] = assay: In vitro microplate assay against P. falciparum NF54 (3H-hypoxanthine incorporation); assay type: cell-based, Plasmodium falciparum; conditions: for IC50: average of four determinations, read-out: PfNF54 IC50
Method: as §1
The in vitro activity of compounds against erythrocytic stages of the drug sensitive NF54 strain of P. falciparum […] was determined using a ^3H-hypoxanthine incorporation assay. Compounds were dissolved in DMSO at 10 mg/mL and further diluted in medium before adding to parasite cultures that were incubated in RPMI 1640 medium without hypoxanthine, supplemented with HEPES (5.94 g/L), NaHCO3 (2.1 g/L), neomycin (100 U/mL), AlbumaxR (5 g/L) and washed human red blood cells A+ at 2.5% haematocrit (0.3% parasitaemia). Serial drug dilutions of eleven 3-fold dilutions steps covering a range from 100 to 0.002 µg/mL were prepared. The 96-well plates were incubated in a humidified atmosphere at 37 °C; 4% CO2, 3% O2, 93% N2. After 48 h of incubation time, 0.05 mL of ^3H-hypoxanthine (=0.5 µCi) was added to each well of the plate. The plates were incubated for further 24 h under the same conditions. Plates were then harvested using a Betaplate^TM cell harvester (Wallac, Zurich, Switzerland). Red blood cells were transferred onto a glass fiber filter and then washed with distilled water. The dried filters were inserted into a plastic foil with 10 mL of scintillation fluid and counted in a Betaplate^TM liquid scintillation counter (Wallac, Zurich, Switzerland). IC50 values were calculated from sigmoidal inhibition curves by linear regression using Microsoft Excel. Chloroquine (Sigma C6628) was used as control.

[5] = Solubility in DMSO and methanol (PAMPA stock solutions); assay type: physicochemical
Method: Permeability is defined using hydrochlorothiazide (Pe = 0.09 × 10^−6 cm/s) and caffeine (Pe = 8.00 × 10^−6 cm/s) as standards.
With the high-throughput PAMPA the newly synthesized compounds were tested for their passive permeability through cell membranes without the influence of efflux pumps or transporter proteins. The assay was performed using a Corning® Gentest^TM Pre-coated PAMPA Plate System with 96-well polystyrene plates. The bottom of the acceptor plate consists of a porous membrane, whereby the pores are lined with a lipid-oil-lipid triple layer. Stock solutions of each test compound at 10 mM were prepared in DMSO or methanol and diluted with phosphate-buffered saline (PBS at a pH of 7.4) to a final concentration of 200 µM. Hydrochlorothiazide (Pe = 0.9 nm/s) and caffeine (Pe = 80 nm/s) were used as standards. The donor plate (bottom plate) was filled with the compound solutions, whereby all compounds were tested in quadruplicates. Each well of the acceptor plate (top plate) was filled with PBS buffer. Donor and acceptor plates were combined and incubated at room temperature for 5 h. After that, the plates were separated and 150 µL of each well of both plates were transferred to 96-well UV plates (Greiner Bio-One). Absorption at different wavelengths covering a range from 200 to 300 nm was measured using a SpectraMax M3 UV plate reader. By measuring serial dilutions of five dilution steps covering a range from 200 to 12.5 µM, a calibration curve was prepared. The plates were analyzed at the wavelength where the R^2 value of the calibration curve was higher than 0.99 [41]. […] (2) cequ=[cD(t)∗VD+cA(t)∗VA]/(VD+VA) where: • VD—donor well volume (0.3 mL); • VA—acceptor well volume (0.2 mL); • cA(t)—acceptor well compound concentration at time t; • cD(t)—donor well compound concentration at time t.

L-6 cells [6] = assay: in vitro
Method: as §1, §2

[7] = Plasmodium falciparum, NF54, chloroquine sensitive strain NF54, erythrocytic stages
[8] = reason why permeability could not be detected

Q: For `CC(C)(C)OC(=O)N1CCN(c2ccccc2NC(=O)c2cccc(C(F)(F)F)c2Oc2ccc(F)cc2)CC1` [Compound 1, reference compound], which “S.I. = IC50 (Cyt.)/IC50 (PfNF54)” value (P. falciparum NF54 [1]) is on record?
A: 316.9

Q: What about the IC50 (P. falciparum NF54 [1]) of the same compound?
A: 0.413 µM

Q: What about the IC50 (L-6 cells [2]) of the same compound?
A: 131 µM

Q: And the Pe [3]?
A: 2.37 10^−6 cm/s

Q: Which results are given for `CC(C)(C)C(=O)N1CCN(c2ccc(NC(=O)c3cccc([N+](=O)[O-])c3Oc3ccc(F)cc3)cc2)CC1` [Compound 44, N-{4-[4-(2,2-Dimethylpropanoyl)piperazin-1-yl]phenyl}-2-(4-fluorophenoxy)-3-nitrobenzamid]?
A: IC50 at 72 h (in vitro): 144 µM; IC50 (P. falciparum NF54 [4]; [7]): 1.5 µM; solubility in DMSO and methanol [5, 8]: insufficient solubility

Q: With `CC(C)(C)C(=O)N1CCN(c2ccc(NC(=O)c3cccc(C(F)(F)F)c3Oc3ccc(F)cc3)cc2)CC1` [Compound 4] as the compound, how does the “S.I. = IC50 (Cyt.)/IC50 (PfNF54)” value (P. falciparum NF54 [1]) read?
A: 171.9

Q: What about the IC50 (P. falciparum NF54 [1]) of the same compound?
A: 0.58 µM

Q: And the IC50 (L-6 cells [2])?
A: 99.6 µM

Q: Which results are given for “tert-Butyl 4-{4-[3-fluoro-2-(4-fluorophenoxy)benzamido]phenyl}piperazin-1-carboxylate [Compound 27]”?
A: IC50 (L-6 cells [6]): 154 µM; S.I. = IC50 (Cyt.)/IC50 (PfNF54) (P. falciparum NF54 [4]; L-6 cells IC50 / PfNF54 IC50): 237.5; IC50 (P. falciparum NF54 [4]; chloroquine sensitive strain NF54, erythrocytic stages): 0.65 µM; solubility in DMSO and methanol [5]: insufficient solubility

Q: Which IC50 at 72 h (in vitro) does the source give for `CC(C)(C)OC(=O)N1CCN(c2ccccc2NC(=O)c2ccccc2Oc2ccc(F)cc2)CC1` [Compound 26, tert-Butyl 4-{2-[2-(4-fluorophenoxy)benzamido]phenyl}piperazine-1-carboxylate] here?
A: 154 µM

Q: What about the IC50 (P. falciparum NF54 [4]; [7]) of the same compound?
A: 0.627 µM

Q: And the “solubility in DMSO and methanol” value [5, 8]?
A: insufficient solubility

Q: What does the source list for `CC(C)(C)C(=O)N1CCN(c2ccccc2NC(=O)c2cccc(C(F)(F)F)c2Oc2ccc(F)cc2)CC1` [Compound 3]?
A: S.I. = IC50 (Cyt.)/IC50 (PfNF54) (P. falciparum NF54 [1]): 299.7; IC50 (P. falciparum NF54 [1]): 0.617 µM; IC50 (L-6 cells [2]): 185 µM

Q: Which results are given for `CC(C)(C)C(=O)N1CCN(c2ccccc2NC(=O)c2ccccc2Oc2ccc(F)cc2)CC1` [Compound 33, N-{2-[4-(2,2-Dimethylpropanoyl)piperazin-1-yl]phenyl}-2-(4-fluorophenoxy)benzamid]?
A: IC50 at 72 h (in vitro): 38.3 µM; IC50 (P. falciparum NF54 [4]; [7]): 2.15 µM; solubility in DMSO and methanol [5, 8]: insufficient solubility

Q: With `CC(C)(C)OC(=O)N1CCN(c2ccc(NC(=O)c3cccc(C(F)(F)F)c3Oc3ccc(F)cc3)cc2)CC1` [Compound 2] as the compound, how does the “S.I. = IC50 (Cyt.)/IC50 (PfNF54)” value (P. falciparum NF54 [1]) read?
A: 461.0

Q: What about the IC50 (P. falciparum NF54 [1]) of the same compound?
A: 0.269 µM

Q: What about the IC50 (L-6 cells [2]) of the same compound?
A: 124 µM

Q: Which results are given for `CC(C)(C)C(=O)N1CCN(c2ccccc2NC(=O)c2cccc(F)c2Oc2ccc(F)cc2)CC1` [Compound 35, N-{2-[4-(2,2-Dimethylpropanoyl)piperazin-1-yl]phenyl}-3-fluoro-2-(4-fluorophenoxy)benzamid]?
A: IC50 at 72 h (in vitro): 15.6 µM; IC50 (P. falciparum NF54 [4]; [7]): 2.14 µM; Pe [3]: 0.00 10^−6 cm/s
